Patent US7160874B2, “Phenylalanine derivatives” (Ajinomoto Co., Inc., priority 1999, dated 2007)
Like-named read-outs stand apart in the source and are kept apart here.

How the values were obtained:
[1] = target: T1, integrin α4β1 (Homo sapiens, UniProt P05556+P13612); assay: VCAM antagonist activity (VCAM-1/α4β1 binding assay); format: cell-based
T1 construct: cell strain Jurkat (ATCC TIB-152) of human T cells, known to express integrin α4β1; host or cells: Jurkat (human T cell line)
Protocol: (Test Example) VCAM Antagonist Activity (VCAM-1/α4β1 Binding Assay):
The capacity of a test substance antagonistic to the binding of cell strain Jurkat (ATCC TIB-152) of human T cells, known to express integrin α4β1, to VCAM-1 was determined.
(§1) 100 μl/well of a solution (500 ng/ml) of recombinant human VCAM-1 (R & D systems) solution diluted with buffer A (0.1 M NaHCO3, pH 9.6) was added to a micro titer plate having 96 wells (Nunc Maxisorp). After the incubation at 4° C. overnight, unbound VCAM-1 was removed by washing once with PBS. After completion of the washing, a buffer (buffer B) obtained by diluting Block Ace® (Dainippon Pharmaceutical Co., Ltd.) with PBS to 1/4 concentration was added in an amount of 150 μl/well. After the incubation at room temperature for 1 hour, buffer B was removed and the plate was washed with PBS once.
Jurkat cells were washed with Dulbecco modified Eagle medium (SIGMA, hereinafter referred to as “DMEM”) twice and then incubated in DMEM containing 10 μg/ml of Calcein-AM (Wako Pure Chemical Industries, Ltd.) at 37° C. in dark place for 30 minutes to label with fluorescence. The cells were again suspended in a binding buffer (20 mM HEPES, DMEM containing 0.1% BSA).
(§2) 50 μl of a test substance of various concentrations obtained by the dilution with the binding buffer was added to the plate. Immediately thereafter, 50 μl (final volume: 100 μl/well) of the fluorescent Jurkat cells (4×10^6 cells/ml) were added thereto, and they were incubated at room temperature for 30 minutes. After the shaking on a plate shaker (IKA MTS-4) at 800 rpm for 30 seconds, the solution was immediately removed to remove the unbound cells. The fluorescence quantity of the bound cells remaining in the wells was determined with a fluorescent plate reader (Wallac 1420 ARVO multi-label counter) (filter excitation wave length: 485 nm, emission wave length: 535 nm). The fluorescent strength thus obtained is proportional to the number of Jurkat cells bound to VCAM-1 and remaining on the plate. The binding rate of each test material in various concentrations was determined while the fluorescent strength of the test material-free well was determined to be 100%. The concentration IC50 for the 50% binding inhibition was calculated.
(§3) The activities were classified into group A wherein IC50 was 0.02 μmol/l or below, group B wherein IC50 was higher than 0.02 μmol/l and not above 0.1 μmol/l, group C wherein IC50 was higher than 0.1 μmol/l and not above 2 μmol/l, and group D wherein IC50 was higher than 2 μmol/l and not above 10 μmol/l.

[2] = target: T2, integrin α4β7 (Homo sapiens, UniProt P13612+P26010); assay: VCAM antagonistic activity (VCAM-1/α4β7 binding assay); format: cell-based
T2 construct: lymphoma cell strain RPMI-8866 of human B cells, known to express integrin α4β7; endogenous in cells; host or cells: RPMI-8866 (human B lymphoma cell line)
T2 sequence (P13612 34-1032): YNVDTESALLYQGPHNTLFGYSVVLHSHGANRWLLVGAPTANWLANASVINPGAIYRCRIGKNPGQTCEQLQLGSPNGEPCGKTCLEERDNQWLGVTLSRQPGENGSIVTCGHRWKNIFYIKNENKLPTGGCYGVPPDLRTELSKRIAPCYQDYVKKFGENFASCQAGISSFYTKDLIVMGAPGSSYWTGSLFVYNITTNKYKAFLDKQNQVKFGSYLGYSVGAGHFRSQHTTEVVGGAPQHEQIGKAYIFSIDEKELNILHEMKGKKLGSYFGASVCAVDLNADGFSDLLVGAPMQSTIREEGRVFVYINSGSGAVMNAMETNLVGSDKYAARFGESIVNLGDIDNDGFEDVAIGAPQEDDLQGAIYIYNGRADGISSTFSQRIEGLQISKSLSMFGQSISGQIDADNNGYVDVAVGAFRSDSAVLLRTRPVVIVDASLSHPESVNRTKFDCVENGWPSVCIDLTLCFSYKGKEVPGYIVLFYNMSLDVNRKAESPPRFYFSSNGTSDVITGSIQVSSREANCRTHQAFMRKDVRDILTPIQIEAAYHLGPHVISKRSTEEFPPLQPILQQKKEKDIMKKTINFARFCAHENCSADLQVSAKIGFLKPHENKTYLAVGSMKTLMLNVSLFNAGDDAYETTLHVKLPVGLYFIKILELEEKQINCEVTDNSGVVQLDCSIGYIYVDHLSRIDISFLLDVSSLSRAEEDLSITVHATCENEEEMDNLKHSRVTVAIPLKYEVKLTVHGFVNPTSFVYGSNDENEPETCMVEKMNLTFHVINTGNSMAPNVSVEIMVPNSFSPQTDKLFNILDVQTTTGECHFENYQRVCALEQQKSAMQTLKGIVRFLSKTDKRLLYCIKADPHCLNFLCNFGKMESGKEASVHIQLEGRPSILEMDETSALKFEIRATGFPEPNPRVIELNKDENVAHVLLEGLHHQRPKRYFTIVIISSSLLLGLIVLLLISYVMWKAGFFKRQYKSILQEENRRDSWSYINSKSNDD
T2 sequence (P26010 20-798): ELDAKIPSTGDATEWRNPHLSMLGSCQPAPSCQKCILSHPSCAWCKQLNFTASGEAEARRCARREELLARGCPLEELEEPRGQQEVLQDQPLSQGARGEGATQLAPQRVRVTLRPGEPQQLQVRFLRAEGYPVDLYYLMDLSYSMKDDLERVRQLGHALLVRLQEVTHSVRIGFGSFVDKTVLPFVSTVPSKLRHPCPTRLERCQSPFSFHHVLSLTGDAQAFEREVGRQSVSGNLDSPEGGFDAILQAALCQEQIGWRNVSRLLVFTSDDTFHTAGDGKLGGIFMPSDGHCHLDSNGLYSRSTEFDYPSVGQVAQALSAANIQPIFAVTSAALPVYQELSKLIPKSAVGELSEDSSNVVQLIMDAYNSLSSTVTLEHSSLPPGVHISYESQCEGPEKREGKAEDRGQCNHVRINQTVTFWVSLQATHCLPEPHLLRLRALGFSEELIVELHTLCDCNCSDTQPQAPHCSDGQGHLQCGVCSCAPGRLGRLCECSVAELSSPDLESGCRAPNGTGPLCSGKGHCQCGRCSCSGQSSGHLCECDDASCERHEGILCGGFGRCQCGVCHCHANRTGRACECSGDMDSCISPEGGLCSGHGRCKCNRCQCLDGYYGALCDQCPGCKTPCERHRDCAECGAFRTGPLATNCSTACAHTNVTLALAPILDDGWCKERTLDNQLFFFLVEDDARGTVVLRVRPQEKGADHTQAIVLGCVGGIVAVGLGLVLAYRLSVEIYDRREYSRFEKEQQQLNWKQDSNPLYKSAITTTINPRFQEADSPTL
Protocol: (Test Example) VCAM Antagonistic Activity (VCAM-1/α4β7 Binding Assay):
The capacity of a test substance antagonistic to the binding of lymphoma cell strain RPMI-8866 of human B cells, known to express integrin α4β7, to VCAM-1 was determined.
as §1
RPMI-8866 cells were incubated in Dulbecco modified Eagle medium containing 10 μg/ml of Calcein-AM (Wako Pure Chemical Industries, Ltd.) (SIGMA, hereinafter referred to as “DMEM”) at 37° C. for 30 minutes to label with fluorescence. The cells were again suspended in a binding buffer (20 mM HEPES, DMEM containing 0.1% BSA) containing 4 mM of MnCl2.
as §2, with “RPMI-8866” for “Jurkat”
as §3

[3] = Jurkat cells binding to VCAM-1, read-out: VCAM antagonistic activity (IC50) α4β1
[4] = RPMI-8866 cells binding to VCAM-1, read-out: VCAM antagonistic activity (IC50) α4β7

T1 sequence (P05556 21-798, one chain of several): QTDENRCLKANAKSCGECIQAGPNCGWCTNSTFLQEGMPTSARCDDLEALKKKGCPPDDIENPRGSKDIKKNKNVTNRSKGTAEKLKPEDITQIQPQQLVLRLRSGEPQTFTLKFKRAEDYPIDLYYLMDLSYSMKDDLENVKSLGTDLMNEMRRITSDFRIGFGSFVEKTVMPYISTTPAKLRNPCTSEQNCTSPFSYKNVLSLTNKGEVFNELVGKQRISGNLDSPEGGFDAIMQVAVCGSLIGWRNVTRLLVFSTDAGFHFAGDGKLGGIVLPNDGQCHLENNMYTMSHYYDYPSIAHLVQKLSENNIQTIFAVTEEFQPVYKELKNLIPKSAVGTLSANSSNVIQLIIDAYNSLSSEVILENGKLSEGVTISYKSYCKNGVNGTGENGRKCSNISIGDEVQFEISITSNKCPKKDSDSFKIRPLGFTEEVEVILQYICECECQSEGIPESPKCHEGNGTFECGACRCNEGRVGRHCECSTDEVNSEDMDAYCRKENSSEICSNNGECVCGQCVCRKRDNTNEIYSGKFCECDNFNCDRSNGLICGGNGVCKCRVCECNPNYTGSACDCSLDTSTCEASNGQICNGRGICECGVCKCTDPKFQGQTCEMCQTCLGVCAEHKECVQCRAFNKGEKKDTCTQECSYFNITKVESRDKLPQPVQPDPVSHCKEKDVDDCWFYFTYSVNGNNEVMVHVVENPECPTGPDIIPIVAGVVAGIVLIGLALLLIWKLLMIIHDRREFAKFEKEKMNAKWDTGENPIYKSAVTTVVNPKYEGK

IC50 [1, 3] [nM]	IC50 [2, 4] [nM]	Compound	IC50 [1] [nM]	IC50 [2] [nM]
100 to 2000	< 20	CCC(CC)(C(=O)N[C@@H](Cc1ccc(OCc2c(Cl)cccc2Cl)cc1)C(=O)O)C(=O)N1CCC(=O)C1 [Example 69]	–	–
20 to 100	< 20	CCC(CC)(C(=O)N[C@@H](Cc1ccc(OCc2c(Cl)cccc2Cl)cc1)C(=O)O)C(=O)N1CCC[C@@H]1C(N)=O [Example 70]	–	–
20 to 100	< 20	CCC(CC)(C(=O)N[C@@H](Cc1ccc(OCc2c(Cl)cccc2Cl)cc1)C(=O)O)C(=O)N1CCC[C@H]1C(=O)NC [Example 72]	–	–
100 to 2000	< 20	CCC(CC)(C(=O)N[C@@H](Cc1ccc(OCc2c(Cl)cccc2Cl)cc1)C(=O)O)C(=O)N1CC[C@@H](N)C1 [Example 76]	–	–
100 to 2000	< 20	CCC(CC)(C(=O)N[C@@H](Cc1ccc(OCc2c(Cl)cccc2Cl)cc1)C(=O)O)C(=O)N1CCC[C@@H](O)C1 [Example 77]	–	–
100 to 2000	< 20	CCC(CC)(C(=O)N[C@@H](Cc1ccc(OCc2c(Cl)cccc2Cl)cc1)C(=O)O)C(=O)N1CCC1 [Example 78]	–	–
–	–	CCC(CC)(C(=O)N[C@@H](Cc1ccc(OCc2c(Cl)cccc2Cl)cc1)C(=O)O)C(=O)N1CC(Br)C(Br)C1 (stereo partly drawn) [Example 79, N-(2-{[(trans-3,4-dibromopyrrolidine)-1-yl]carbonyl}-2-ethyl-butanoyl)-O-(2,6-dichlorobenzyl)-L-tyrosine]	100 to 2000	< 20
100 to 2000	< 20	CCC(CC)(C(=O)N[C@@H](Cc1ccc(OCc2c(Cl)cccc2Cl)cc1)C(=O)O)C(=O)N1CC[C@H](F)C1 [Example 80]	–	–
100 to 2000	< 20	CCC(CC)(C(=O)N[C@@H](Cc1ccc(OCc2c(Cl)cccc2Cl)cc1)C(=O)O)C(=O)N1C[C@@H](O)[C@@H](O)C1 [Example 81, N-(2-{[(cis-3,4-dihydroxypyrrolidine)-1-yl]carbonyl}-2-ethyl-butanoyl)-O-(2,6-dichlorobenzyl)-L-tyrosine]	–	–
20 to 100	< 20	CCC(CC)(C(=O)N[C@@H](Cc1ccc(OCc2c(Cl)cccc2Cl)cc1)C(=O)O)C(=O)N1CC(O)C(Cl)C1 (stereo partly drawn) [Example 82]	–	–
100 to 2000	< 20	CCC(CC)(C(=O)N[C@@H](Cc1ccc(OCc2c(Cl)cccc2Cl)cc1)C(=O)O)C(=O)N1CC[C@@H](F)C1 [Example 84]	–	–
100 to 2000	< 20	CSc1ncc(Cl)c(C(=O)Nc2ccc(C[C@H](NC(=O)C3(C(=O)N(C)C)CC3)C(=O)O)cc2)n1 [Example 85, N-[1-N,N-dimethylaminocarbonylcyclopropane-1-ylcarbonyl]-4-({[5-chloro-2-(methylthio)pyrimidine-4-yl]carbonyl}-amino)-L-phenylalanine]	–	–
100 to 2000	20 to 100	CN(C)C(=O)C1(C(=O)N[C@@H](Cc2ccc(NC(=O)c3cc(F)c(F)cc3Cl)cc2)C(=O)O)CC1 [Example 86]	–	–
100 to 2000	20 to 100	CN(C)C(=O)C1(C(=O)N[C@@H](Cc2ccc(NC(=O)c3cc(Br)ccc3Cl)cc2)C(=O)O)CC1 [Example 87]	–	–
100 to 2000	100 to 2000	CN(C)C(=O)C1(C(=O)N[C@@H](Cc2ccc(NC(=O)c3cc(Br)ccc3Br)cc2)C(=O)O)CC1 [Example 88]	–	–
100 to 2000	100 to 2000	COc1ccc(Br)c(C(=O)Nc2ccc(C[C@H](NC(=O)C3(C(=O)N(C)C)CC3)C(=O)O)cc2)c1 [Example 89]	–	–
100 to 2000	20 to 100	CN(C)C(=O)C1(C(=O)N[C@@H](Cc2ccc(NC(=O)c3c(Cl)cccc3Cl)cc2)C(=O)O)CC1 [Example 90, N-[1-(N,N-dimethylaminocarbonyl)-cyclopropane-1-ylcarbonyl]-4-{[2,6-dichlorophenylcarbonyl]amino}-L-phenylalanine]	–	–
< 20	< 20	CCC(CC)(C(=O)N[C@@H](Cc1ccc(NC(=O)c2c(Cl)cccc2Cl)cc1)C(=O)O)C(=O)N1CCCC1 [Example 91, N-[2-(pyrrolidine-1-ylcarbonyl)-2-ethyl-butanoyl]-4-{[(2,6-dichlorophenyl)carbonyl]amino}-L-phenylalanine]	–	–
